Measurements published in ChEMBL document CHEMBL4342453, “Prenylated p-Terphenyls from a Mangrove Endophytic Fungus, Aspergillus candidus LDJ-5” (J Nat Prod, 2020).
≈ marks a conversion by molar mass, not a printed value.

How the values were obtained:
L02 = assay: Cytotoxicity against human L02 cells after 24 hrs by SRB method; settings: L02, 24 h
MGC-803 = assay: Cytotoxicity against human MGC803 cells after 24 hrs by SRB method; settings: MGC-803, 24 h
HCT-116 = assay: Cytotoxicity against human HCT116 cells after 24 hrs by SRB method; settings: HCT-116, 24 h
Bel-7402 = assay: Cytotoxicity against human Bel7402 cells after 24 hrs by SRB method; settings: Bel-7402, 24 h
A549 = assay: Cytotoxicity against human A549 cells after 24 hrs by SRB method; settings: A549, 24 h
SH-SY5Y = assay: Cytotoxicity against human SH-SY5Y cells after 24 hrs by SRB method
HeLa = assay: Cytotoxicity against human HeLa cells after 24 hrs by SRB method
U-87 MG = assay: Cytotoxicity against human U87 cells after 24 hrs by SRB method
K562 = assay: Cytotoxicity against human K562 cells after 72 hrs by MTT assay; settings: K562, 72 h
HL-60 = assay: Cytotoxicity against human HL60 cells after 72 hrs by MTT assay; type: functional, cell-based; settings: HL-60, 72 h
Proteus = assay: Antibacterial activity against Proteus by conventional broth dilution assay; type: functional

MIC (Proteus)	Compound	IC50 (L02)	IC50 (MGC-803)	IC50 (HCT-116)	IC50 (Bel-7402)	IC50 (A549)	IC50 (SH-SY5Y)	IC50 (HeLa)	IC50 (U-87 MG)	IC50 (K562)	IC50 (HL-60)
–	COc1cc(-c2c(OC)cc(-c3ccccc3)c(OC)c2O)cc2c1OC(C)(C)CC2	29.7 µM	12.5 µM	16.9 µM	12.6 µM	16.3 µM	12.4 µM	11.5 µM	> 50 µM	> 50 µM	> 50 µM
–	COc1c(-c2ccccc2)cc(OC)c2c1oc1cc(O)c(OCC=C(C)C)cc12	16.7 µM	16.3 µM	19.8 µM	14.9 µM	19.1 µM	17.9 µM	14 µM	10.3 µM	5 µM	> 50 µM
–	COc1cc2oc3c(OC)c(-c4cc(CC=C(C)C)c(O)c(OC)c4)cc(OC)c3c2cc1O	17.9 µM	1.4 µM	0.9 µM	16 µM	2.8 µM	2.2 µM	10.1 µM	> 50 µM	> 50 µM	3.4 µM
22 µg/mL (≈ 50.2 µM)	COc1cc(-c2ccc(O)c(O)c2)c(OC)c(O)c1-c1ccc(OCC=C(C)C)c(O)c1	3.5 µM	0.7 µM	0.5 µM	> 50 µM	0.4 µM	0.6 µM	2 µM	13.8 µM	> 50 µM	> 50 µM
–	COc1ccc(-c2c(OC)cc(-c3ccc(O)c(CC=C(C)C)c3)c(OC)c2O)cc1OC	> 50 µM	8.1 µM	6.2 µM	> 50 µM	7.6 µM	15.6 µM	8.5 µM	> 50 µM	15.9 µM	> 50 µM
–	COc1cc(-c2c(OC)cc(-c3ccccc3)c(OC)c2O)ccc1OC/C=C(\C)CO	19.9 µM	11 µM	9.3 µM	12.4 µM	10.2 µM	10.4 µM	8.3 µM	> 50 µM	> 50 µM	7.1 µM
–	COc1c(-c2ccccc2)cc(OC)c2c1oc1c3c(c(O)cc12)OC(C)(C)C=C3	> 50 µM	> 50 µM	> 50 µM	> 50 µM	> 50 µM	> 50 µM	> 50 µM	> 50 µM	> 50 µM	> 50 µM
–	COc1cc2oc3c(OC)c(-c4cc(CC=C(C)C)c(O)c(OC)c4)cc(OC)c3c2cc1OC	> 50 µM	> 50 µM	> 50 µM	> 50 µM	> 50 µM	> 50 µM	> 50 µM	> 50 µM	> 50 µM	> 50 µM
–	COc1cc(-c2c(OC)cc(-c3ccccc3)c(OC)c2O)cc(CC=C(C)C)c1O	24.4 µM	14.5 µM	14.7 µM	11.1 µM	14.8 µM	16.7 µM	11.4 µM	> 50 µM	> 50 µM	> 50 µM
